Experimental data: PubChem BioAssay AID2060622 (Molecular Pharmacology Branch, DTP, NCI, 2025)
“And” between values parts separate entries of the source, which are not always exact repeats. Equal entries are not always repeated. Values belong to the compound of their own block, whether it stands above or below them.

Test system: 242566-281-R-J2-PDC complex spheroid viability
Assay: Anticancer human tumor 242566-281-R-J2-PDC patient-derived pancreatic carcinoma cell line growth inhibition [CLK]
Conditions: for viability, T/C: stronger effect = lower value
Method in brief: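 Patient-derived tumor cells grown as complex spheroids with HUVEC endothelial cells and mesenchymal stem cells, treated with drug combinations. Concentrations descend in half-log steps from near clinical Cmax, or from 10 microM if Cmax unknown.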

[1] = curve of first compound, second compound 0.0316 µM
[2] = curve of first compound, second compound 0.1 µM
[3] = curve of first compound, second compound 0.316 µM
[4] = curve of first compound, second compound 1 µM
[5] = curve of first compound, second compound 3.16 µM
[6] = curve of first compound, second compound 10 µM
[7] = second compound 0.0316 µM, first compound 0.0316 µM
[8] = second compound 0.0316 µM, first compound 0.1 µM
[9] = second compound 0.0316 µM, first compound 0.316 µM
[10] = second compound 0.0316 µM, first compound 1 µM
[11] = second compound 0.0316 µM, first compound 3.16 µM
[12] = second compound 0.0316 µM, first compound 10 µM
[13] = second compound 0.1 µM, first compound 0.0316 µM
[14] = second compound 0.1 µM, first compound 0.1 µM
[15] = second compound 0.1 µM, first compound 0.316 µM
[16] = second compound 0.1 µM, first compound 1 µM
[17] = second compound 0.1 µM, first compound 3.16 µM
[18] = second compound 0.1 µM, first compound 10 µM
[19] = second compound 0.316 µM, first compound 0.0316 µM
[20] = second compound 0.316 µM, first compound 0.1 µM
[21] = second compound 0.316 µM, first compound 0.316 µM
[22] = second compound 0.316 µM, first compound 1 µM
[23] = second compound 0.316 µM, first compound 3.16 µM
[24] = second compound 0.316 µM, first compound 10 µM
[25] = second compound 1 µM, first compound 0.0316 µM
[26] = second compound 1 µM, first compound 0.1 µM
[27] = second compound 1 µM, first compound 0.316 µM
[28] = second compound 1 µM, first compound 1 µM
[29] = second compound 1 µM, first compound 3.16 µM
[30] = second compound 1 µM, first compound 10 µM
[31] = second compound 3.16 µM, first compound 0.0316 µM
[32] = second compound 3.16 µM, first compound 0.1 µM
[33] = second compound 3.16 µM, first compound 0.316 µM
[34] = second compound 3.16 µM, first compound 1 µM
[35] = second compound 3.16 µM, first compound 3.16 µM
[36] = second compound 3.16 µM, first compound 10 µM
[37] = second compound 10 µM, first compound 0.0316 µM
[38] = second compound 10 µM, first compound 0.1 µM
[39] = second compound 10 µM, first compound 0.316 µM
[40] = second compound 10 µM, first compound 1 µM
[41] = second compound 10 µM, first compound 3.16 µM
[42] = second compound 10 µM, first compound 10 µM
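Note: spheroids exposed to compounds for 7 days before readout.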
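Throughout, for viability, T/C: 100% = DMSO vehicle control wells.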

IC50 [1]: > 10 µM
IC50 [2]: > 10 µM
IC50 [3]: > 10 µM
IC50 [4]: > 10 µM
IC50 [5]: > 10 µM
IC50 [6]: > 10 µM
SMILES: O=C(c1cc(Cc2n[nH]c(=O)c3ccccc23)ccc1F)N1CCN(C(=O)C2CC2)CC1 + CNC(=O)c1ccc(Nc2nc(OC3CCCC3)c3c(-c4ccc5nc(C)oc5c4)c[nH]c3n2)c(OC)c1
viability, T/C [7]: 94.9%
viability, T/C [8]: 110%
viability, T/C [9]: 96.1%
viability, T/C [10]: 115%
viability, T/C [11]: 95.6%
viability, T/C [12]: 81.9%
viability, T/C [13]: 97.9%
viability, T/C [14]: 98.4%
viability, T/C [15]: 117%
viability, T/C [16]: 98.4%
viability, T/C [17]: 88.4%
viability, T/C [18]: 70.3%
viability, T/C [19]: 92.6%
viability, T/C [20]: 83.6%
viability, T/C [21]: 87.6%
viability, T/C [22]: 92.7%
viability, T/C [23]: 92%
viability, T/C [24]: 65%
viability, T/C [25]: 81.9%
viability, T/C [26]: 57.1%
viability, T/C [27]: 65.5%
viability, T/C [28]: 69.8%
viability, T/C [29]: 70.5%
viability, T/C [30]: 55.3%
viability, T/C [31]: 63%
viability, T/C [32]: 60%
viability, T/C [33]: 58.6%
viability, T/C [34]: 51.7%
viability, T/C [35]: 52.2%
viability, T/C [36]: 56.2%
viability, T/C [37]: 52.5%
viability, T/C [38]: 52.2%
viability, T/C [39]: 52.7%
viability, T/C [40]: 52.5%
viability, T/C [41]: 46%
viability, T/C [42]: 57.6%

IC50 (curve of compound): 4.64 µM and 8.46 µM
SMILES: Nc1ccccc1NC(=O)c1ccc(CNC(=O)OCc2cccnc2)cc1
viability, T/C (compound 0.0316 µM): 97.8% and 80.4%
viability, T/C (compound 0.1 µM): 82% and 115%
viability, T/C (compound 0.316 µM): 98.7% and 85.3%
viability, T/C (compound 1 µM): 84.6% and 107%
viability, T/C (compound 3.16 µM): 68% and 110%
viability, T/C (compound 10 µM): 14.5% and 41.5%

IC50 (curve of compound): < 0.0316 µM and 0.0839 µM
SMILES: Nc1ccn(C2OC(CO)C(O)C2(F)F)c(=O)n1 (configuration not stated)
viability, T/C (compound 0.0316 µM): 39.5% and 87%
viability, T/C (compound 0.1 µM): 16.9% and 43.3%
viability, T/C (compound 0.316 µM): 11.7% and 21.3%
viability, T/C (compound 1 µM): 9.16% and 13.8%
viability, T/C (compound 3.16 µM): 7.63% and 10.3%
viability, T/C (compound 10 µM): 6.49% and 9.77%

IC50 [1]: 5.78 µM
IC50 [2]: 5.43 µM
IC50 [3]: 4.99 µM
IC50 [4]: 3.34 µM
IC50 [5]: 1.13 µM
IC50 [6]: 0.107 µM
SMILES: C=C(F)C(=O)N1CCN(c2nc(OCC3CCCN3C)nc3c2CCN(c2cccc4cccc(Cl)c24)C3)CC1CC#N (configuration not stated) + CNC(=O)c1ccc(Nc2nc(OC3CCCC3)c3c(-c4ccc5nc(C)oc5c4)c[nH]c3n2)c(OC)c1
viability, T/C [7]: 95.6%
viability, T/C [8]: 101%
viability, T/C [9]: 108%
viability, T/C [10]: 101%
viability, T/C [11]: 119%
viability, T/C [12]: 0.23%
viability, T/C [13]: 108%
viability, T/C [14]: 78.5%
viability, T/C [15]: 83.4%
viability, T/C [16]: 105%
viability, T/C [17]: 94.4%
viability, T/C [18]: 0.19%
viability, T/C [19]: 82.2%
viability, T/C [20]: 76.3%
viability, T/C [21]: 69.7%
viability, T/C [22]: 88.6%
viability, T/C [23]: 95%
viability, T/C [24]: 0.63%
viability, T/C [25]: 73.3%
viability, T/C [26]: 64.4%
viability, T/C [27]: 65.5%
viability, T/C [28]: 65%
viability, T/C [29]: 52.7%
viability, T/C [30]: 0.17%
viability, T/C [31]: 63.3%
viability, T/C [32]: 51.1%
viability, T/C [33]: 50.8%
viability, T/C [34]: 53.6%
viability, T/C [35]: 19.6%
viability, T/C [36]: 0.18%
viability, T/C [37]: 54.4%
viability, T/C [38]: 45.2%
viability, T/C [39]: 50%
viability, T/C [40]: 43.9%
viability, T/C [41]: 16%
viability, T/C [42]: 0.24%

IC50 [1]: 5.24 µM
IC50 [2]: 6.17 µM
IC50 [3]: 0.404 µM
IC50 [4]: 0.139 µM
IC50 [5]: < 0.0316 µM
IC50 [6]: < 0.0316 µM
SMILES: COC1C=CCC(C)C(C)S(=O)(=O)NC(=O)c2ccc3c(c2)N(CC2CCC21)CC1(CCCc2cc(Cl)ccc21)CO3 (configuration not stated) + CNC(=O)c1ccc(Nc2nc(OC3CCCC3)c3c(-c4ccc5nc(C)oc5c4)c[nH]c3n2)c(OC)c1
viability, T/C [7]: 95.8%
viability, T/C [8]: 91.9%
viability, T/C [9]: 72%
viability, T/C [10]: 84.9%
viability, T/C [11]: 67.5%
viability, T/C [12]: 29.1%
viability, T/C [13]: 94.7%
viability, T/C [14]: 74.8%
viability, T/C [15]: 65.4%
viability, T/C [16]: 84.3%
viability, T/C [17]: 91.4%
viability, T/C [18]: 26.8%
viability, T/C [19]: 84.9%
viability, T/C [20]: 64.7%
viability, T/C [21]: 50.6%
viability, T/C [22]: 42.3%
viability, T/C [23]: 39.1%
viability, T/C [24]: 25.9%
viability, T/C [25]: 64.9%
viability, T/C [26]: 55.3%
viability, T/C [27]: 38.5%
viability, T/C [28]: 29.1%
viability, T/C [29]: 25.6%
viability, T/C [30]: 19.6%
viability, T/C [31]: 49.6%
viability, T/C [32]: 40.1%
viability, T/C [33]: 30.7%
viability, T/C [34]: 20.8%
viability, T/C [35]: 18.1%
viability, T/C [36]: 14.2%
viability, T/C [37]: 42.9%
viability, T/C [38]: 41.2%
viability, T/C [39]: 30.8%
viability, T/C [40]: 18.3%
viability, T/C [41]: 13.5%
viability, T/C [42]: 12.1%

IC50 [1]: > 10 µM
IC50 [2]: > 10 µM
IC50 [3]: 10 µM
IC50 [4]: > 10 µM
IC50 [5]: > 10 µM
IC50 [6]: > 10 µM
SMILES: CC1(C)CCC(CN2CCN(c3ccc(C(=O)NS(=O)(=O)c4ccc(NCC5CCOCC5)c([N+](=O)[O-])c4)c(Oc4cnc5[nH]ccc5c4)c3)CC2)=C(c2ccc(Cl)cc2)C1 + CNC(=O)c1ccc(Nc2nc(OC3CCCC3)c3c(-c4ccc5nc(C)oc5c4)c[nH]c3n2)c(OC)c1
viability, T/C [7]: 80%
viability, T/C [8]: 95.8%
viability, T/C [9]: 113%
viability, T/C [10]: 123%
viability, T/C [11]: 115%
viability, T/C [12]: 96.4%
viability, T/C [13]: 83%
viability, T/C [14]: 92%
viability, T/C [15]: 97.2%
viability, T/C [16]: 131%
viability, T/C [17]: 105%
viability, T/C [18]: 73.9%
viability, T/C [19]: 87.3%
viability, T/C [20]: 96.6%
viability, T/C [21]: 72%
viability, T/C [22]: 92.4%
viability, T/C [23]: 84.8%
viability, T/C [24]: 50%
viability, T/C [25]: 71.2%
viability, T/C [26]: 68.4%
viability, T/C [27]: 69.7%
viability, T/C [28]: 73%
viability, T/C [29]: 77.9%
viability, T/C [30]: 60.4%
viability, T/C [31]: 51.9%
viability, T/C [32]: 54%
viability, T/C [33]: 57.8%
viability, T/C [34]: 61.8%
viability, T/C [35]: 66.3%
viability, T/C [36]: 45.4%
viability, T/C [37]: 54.6%
viability, T/C [38]: 49.2%
viability, T/C [39]: 54.3%
viability, T/C [40]: 55.3%
viability, T/C [41]: 60.2%
viability, T/C [42]: 46.8%

IC50 (curve of compound): > 10 µM
SMILES: O=C(c1cc(Cc2n[nH]c(=O)c3ccccc23)ccc1F)N1CCN(C(=O)C2CC2)CC1
viability, T/C (compound 0.0316 µM): 107% and 93.5%
viability, T/C (compound 0.1 µM): 97.4% and 85.4%
viability, T/C (compound 0.316 µM): 96.3% and 82.3%
viability, T/C (compound 1 µM): 102% and 94.1%
viability, T/C (compound 3.16 µM): 87.1% and 111%
viability, T/C (compound 10 µM): 72.5% and 75.4%

IC50 (curve of compound): 0.0258 µM and 0.0432 µM
SMILES: COc1c(OCCCN2CCOCC2)ccc2c3n(c(=NC(=O)c4cnc(N)nc4)nc12)CCN3
viability, T/C (compound 0.00316 µM): 86.1% and 72.8%
viability, T/C (compound 0.01 µM): 73.2% and 74.1%
viability, T/C (compound 0.0316 µM): 44.2% and 56.4%
viability, T/C (compound 0.1 µM): 21.8% and 30.8%
viability, T/C (compound 0.316 µM): 12.3% and 19.2%
viability, T/C (compound 1 µM): 6.02% and 16.4%

SMILES: C#Cc1c(F)ccc2cc(O)cc(-c3ncc4c(N5CC6CCC(C5)N6)nc(OCC56CCCN5CC(F)C6)nc4c3F)c12 (configuration not stated)
viability, T/C (compound 0.0316 µM): 104% and 67.3%
viability, T/C (compound 0.1 µM): 90.1% and 49.6%
viability, T/C (compound 0.316 µM): 76.2% and 43.3%
viability, T/C (compound 1 µM): 58.3% and 26.4%
viability, T/C (compound 3.16 µM): 48.6% and 26%
viability, T/C (compound 10 µM): 40% and 21.3%
